Results: patent US8765420B2, “Method for preparing pterocarpan” (priority 2010, dated 2014)

Biological target: T1, biphenyl dioxygenase of P. pseudoalcaligenes KF707 (SEQ ID NO:3) (Metapseudomonas furukawaii, UniProt Q52028)
T1 construct: expressed in transfected cells; host or cells: Escherichia coli JM109 (pJHF108)
Assay: Biotransformation kinetics by whole cells of E. coli expressing biphenyl dioxygenase
Type: biochemical, Pseudomonas pseudoalcaligenes strain KF707
Settings: for Corresponding epoxides produced after 5 h reaction: initial concentration of substrate 250 μM, whole cells of E. coli expressing BDO, 37° C., means of triplicate ± standard errors
Method: E. coli JM109 (pJHF108) was seed cultivated in 50 mL of LB medium containing ampicillin […] at 37° C. for 12 hours. The cultivated seed was inoculated to a 5-L fermentor (BioFlo 3000, Korea fermentor Co., Korea) containing 4.5 L of LB medium and […] of ampicillin, and mixed at 37° C. at 200 rpm for 8 hours. The culture broth was centrifuged at 8,000 g for 10 minutes using VS-21SMT centrifuge (Vision Scientific Co., Bucheon, Korea). Cells were washed three times with 100 mM minimal salt buffer and resuspended in the same buffer, adjusting to the optical density at 600 nm using a UV/visible spectrophotometer (Shimadzu, UV-1601PC, Kyoto, Japan).
Analytical HPLC was carried out using a Varian Prostar HPLC apparatus (Walnut Creek, Calif.) equipped with a photodiode array […] detector. For the analysis of isoflavan-4-ol stereoisomers and their metabolites, a Waters Spherisorb ODS-2 column ([…], 4.6 mm×25 cm, Milford, Mass.) was used. The mobile phase was operated as a linear gradient that made up of water-acetonitrile containing 0.1% formic acid (10% acetonitrile at 0 min, 40% acetonitrile at 15 min, 90% acetonitrile at 25 min, and 90% acetonitrile at 40 min). The flow rate was 1 mL/min and UV detection was performed at 270 nm. For the analysis of enantiomers of cis- and trans-isoflavan-4-ol, a Sumi Chiral OA-7000 column (5 mm, 4.6 mm×25 cm, Sumika Chemical Analysis Service, Ltd., Osaka, Japan) and mobile phase composed of 60:40 (v/v) of 20 mM phosphate buffer (pH 3.0) and acetonitrile were used. The flow rate was 1 mL/min and UV detection was performed at 270 nm.
Biotransformation kinetics by whole cells of E. coli expressing biphenyl dioxygenase was performed as follows. The bacterial culture was prepared as described above, resuspended in 50 mL of phosphate buffer containing 1 mM glucose in a 250 mL flask, and adjusted to a final culture concentration of OD 600 nm=0.6. Then, the bacterial culture was incubated with 250 μM each of four purified isoflavan-4-ol stereoisomers ((3S,4S)- and (3R,4R)-cis-isoflavan-4-ols and (3S,4R)- and (3R,4S)-trans-isoflavan-4-ols) on a rotary shaker (200 rpm) at 37° C. The bacterial cultures (2 mL) were extracted with ethyl acetate, and the solvent was evaporated to dryness as described above. Quantification of metabolites and parent compound by using HPLC with time was monitored in triplicate experiments. Due to the instability of metabolites which were produced from parent compound, the quantity was calculated from the peak area as compared to the standard curve of the parent compound.

T1 sequence (Q52028 whole entry M237T/S238T/M247I/H255Q/V258I/G268A/F277Y/M283S/M285L/D303E/T340I): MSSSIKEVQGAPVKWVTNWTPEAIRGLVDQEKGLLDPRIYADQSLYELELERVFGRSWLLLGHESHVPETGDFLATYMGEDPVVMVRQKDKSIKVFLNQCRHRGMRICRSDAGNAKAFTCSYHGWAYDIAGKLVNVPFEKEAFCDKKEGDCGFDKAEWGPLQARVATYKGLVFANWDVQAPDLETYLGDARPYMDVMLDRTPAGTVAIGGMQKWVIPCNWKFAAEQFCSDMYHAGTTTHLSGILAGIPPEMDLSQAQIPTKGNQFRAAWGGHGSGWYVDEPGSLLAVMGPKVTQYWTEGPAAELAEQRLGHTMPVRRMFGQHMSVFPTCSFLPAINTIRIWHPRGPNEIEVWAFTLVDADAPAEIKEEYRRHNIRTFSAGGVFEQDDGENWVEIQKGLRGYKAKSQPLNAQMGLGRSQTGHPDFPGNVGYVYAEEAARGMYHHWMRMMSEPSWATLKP

Structure (SMILES)	Corresponding epoxides produced after 5 h reaction	Corresponding epoxides produced after 5 h reaction (listed as Trans-isoflavan-4-ol (3S,4R))	epoxide production relative to that from (3R,4R)-cis-isoflavan-4-ol (after 5 h of reaction)	Corresponding epoxides produced after 5 h reaction (listed as Trans-isoflavan-4-ol (3R,4S))
O[C@H]1c2ccccc2OC[C@@H]1c1ccccc1 (stereo in doubt) [(3S,4R)-trans-isoflavan-4-ol]	141.1 µM	141.1 ± 6.2 µM	–	–
O[C@H]1c2ccccc2OC[C@H]1c1ccccc1 (stereo in doubt) [(3R,4R)-cis-isoflavan-4-ol]	40 ± 4.0 µM	–	–	–
O[C@@H]1c2ccccc2OC[C@@H]1c1ccccc1 (stereo in doubt) [(3S,4S)-cis-isoflavan-4-ol]	194.8 ± 5.5 µM	–	about 4.8 fold	–
O[C@@H]1c2ccccc2OC[C@H]1c1ccccc1 (stereo in doubt) [(3R,4S)-trans-isoflavan-4-ol]	163.3 µM	–	–	163.3 ± 6.8 µM
